From ChEMBL document CHEMBL2384905, “Therapeutic agents triggering nonapoptotic cancer cell death” (J Med Chem, 2013)

What was measured:
Assay type in all cases: functional, Homo sapiens, Cancer cell lines
[1] = Antitumor activity against lung cancer cells in lung cancer patient assessed as remission rate relative to control
[2] = Antitumor activity against lung cancer cells in lung cancer patient assessed as survival rate relative to control
[3] = Antitumor activity against lung cancer cells in lung cancer patient assessed as tumor growth inhibition relative to control

Compound `CC(C)=CC[C@@H](O)C1=CC(=O)c2c(O)ccc(O)c2C1=O` [SHIKONIN] has an Activity [1] of 37%, a Survival [2] of 47% and a TGI [3] of 63%.
